Measurements reported in patent US6197225A, “Chromene compound” (Tokuyama Corporation, priority 1997, dated 2001).

What was measured:
[1] = Photochromic properties of cast polymer (2 mm thick) under xenon lamp irradiation for 120 seconds; assay type: physicochemical; conditions: single chromene compound 0.04% by weight in polymer, 20° C., Table 5; for Color density ε(120)-ε(0): 120 seconds
Experimental: 0.04% by weight of the chromene compound obtained in Example 1 was added to 70 parts of 4G, 15 parts of 3G, 10 parts of GMA, 5 parts of HEMA and 1 part of perbutyl ND, and was mixed together to a sufficient degree. The mixture solution was poured into a mold constituted by a glass plate and a gasket of an ethylene/vinyl acetate copolymer, and was cast-polymerized. By using an air furnace, the polymerization was conducted in a manner that the temperature was gradually raised from 30° C. to 90° C. over a period of 18 hours, and was held at 90° C. for 2 hours. After the polymerization, the polymer was taken out from the glass mold.
By using a xenon lamp, L-2480 (300 W) SHL-100, manufactured by Hamamatsu Photonics Co., the obtained polymer (2 mm thick) was irradiated with a beam of an intensity of 365 nm=2.4 mW/cm^2 and 245 nm=24 μW/cm^2 on the surface of the polymer for 120 seconds through an aero-mass filter (manufactured by Corning Co.) at 20° C.±1° C. to develop color and to measure the photochromic properties which were expressed in the following manner.
1 Maximum absorption wavelength (λmax): λmax of the polymer after it has developed color was found by using a spectrophotometer (instantaneous multi-channel photo-detector, MCPD1000) manufactured by Otsuka Denshi Kogyo Co.
2 Initial color ( ε(0)): Absorbency of the polymer in a non-irradiated state at a wavelength same as the maximum absorption wavelength of when it is irradiated with light.
3 Color density (-)=ε(120)-ε(0). ε(120): Absorbency of the polymer at a maximum absorption wavelength after it was irradiated for 120 seconds under the above-mentioned conditions.
4 Color-developing sensitivity (-/min.)=Saturated color density/xenon irradiation time.
Rate of increase in the color density per a unit time until the color density is saturated.
5 Color fading rate [t1/2 (min.)]=time required until the absorbency of the polymer drops down to one-half of [ε(120)-ε(0)] after irradiated for 120 seconds.
(§1) Photochromic polymers were prepared in the same manner as in Example 42 but using the chromene compounds obtained in Examples 2 to 41, and their maximum absorption wavelengths, color densities, fading rates, changes in the coloring degrees and durabilitys were measured.
(§2) For the purpose of comparison, furthermore, the compounds represented by the following formulas (a), (b), (c), (d), (e) and (f) were measured for their maximum absorption wavelengths, color densities, fading rates, changes in the coloring degrees and durabilitys.
(§3) The procedure was carried out in the same manner as in Example 42 but using 100 parts of AC1 and 133 parts of BC1, the sum of the amounts of AC1 and BC1 being 0.04% by weight. The obtained photochromic polymer was measured for its maximum absorption wavelength, initial color, color density, color-developing sensitivity, fading rate, durability and change in the coloring degree.
(§4) The procedure was carried out in the same manner as in Example 83 but using the known chromene compounds shown in Table 6 instead of the chromene compound used in Example 83. […]

[2] = Aging promotion testing: sunlight 30 min / fading one hour cycles, 10 days (durability, coloring degree); assay type: physicochemical; conditions: single chromene compound in polymer, 10 days aging, Table 5; for Change in the coloring degree ΔYI: YI(10)-YI(0)
Experimental: In order to promote the aging, furthermore, the following testing was conducted. That is, the obtained photochromic polymer was irradiated with sunlight for 30 minutes to develop color, and its color was permitted to fade for one hour in the light of a fluorescent lamp. This cycle was repeated three times a day for a total of 10 days.
The photochromic properties before and after aged were evaluated by evaluating the color densities before and after aged. The initial color density (T0) and the color density (T30) ten days after the aging promotion testing were measured, and the durability was expressed as described below.
Furthermore, the coloring degrees of before developing color were measured before and after aged by using a color difference meter (SM-4) manufactured by Suga Shikenki Co.
7 Coloring degree before being aged=YI(0).
8 Change in the coloring degree (ΔYI)=YI(10)-YI(0)
YI(10): coloring degree after aged
as §1, §2, §3, §4
The obtained polymer (2 mm thick) was caused to develop color outdoors, and tones of the developed color were observed by eyes 30 seconds and 15 minutes after it was brought to the outdoors, and uniformity in the step of developing color was evaluated. […] Furthermore, the aging promoting testing was conducted in the same manner as in Example 42 to find a coloring degree (YI(0)) before aged and a change in the coloring degree (ΔY).

[3] = prior-art compound, placed in a dark place after color development; cited from earlier work

SMILES	Fading rate t1/2 [1]	Maximum absorption wavelength λmax [1]	Color density ε(120)-ε(0) [1]	Change in the coloring degree ΔYI [2]	Light resistance (durability) [2]	fading rate (in words) [3]
CC(C)(C)c1cc2ccccc2c2c1C=CC1(O2)C2(Cl)CCCC1(Cl)CCC2 (stereo not drawn) [Compound 22]	1.4 min	444 nm	0.5	3.0	80%	
COc1ccc(C2(c3ccc(OC)cc3)C=Cc3c(C)cc4ccc(C)cc4c3O2)cc1 [Compound 36]	6.0 min	510 nm	1.1	2.3	98%	
C1=CC2(CC3CCC2C3)Oc2c1ccc1ccccc21 (stereo not drawn) [(A)]						slow fading rate
CCc1cc2ccccc2c2c1C=CC(c1ccc(OC)cc1)(c1ccc(OC)cc1)O2 [Compound 28]	5.5 min	502 nm	1.0	2.5	96%	
CCC(C)c1cc2ccccc2c2c1C=CC1(O2)C2CCCC1CCC2 (stereo not drawn) [Compound 23]	1.0 min	450 nm	0.5	2.0	92%	
CCOc1ccc(C2(c3ccc(OCC)cc3)C=Cc3c(C)cc4ccccc4c3O2)cc1 [Compound 29]	5.8 min	504 nm	1.2	2.4	98%	
CC(C)c1cc2cc(O)ccc2c2c1C=CC(c1cccs1)(c1cccs1)O2 [Compound 9]	2.2 min	500 nm	0.6	2.2	94%	
CC(C)(C)c1cc2ccccc2c2c1C=CC(c1ccccc1)(c1ccc(OC(F)(F)F)cc1)O2 (stereo not drawn) [Compound 17]	3.2 min	452 nm	0.7	0.7	98%	
CC(C)(C)c1cc2ccccc2c2c1C=CC(c1ccccc1)(c1cc3ccccc3s1)O2 (stereo not drawn) [Compound 11]	3.4 min	485 nm	1.0	1.9	97%	
CCCc1cc2c(CC)cc(OCC)cc2c2c1C=CC(c1ccc(OC)cc1)(c1cccs1)O2 (stereo not drawn) [Compound 40]	5.2 min	524 nm	0.9	2.7	96%	
COc1ccc(C2(c3ccc(OC(F)(F)F)cc3)C=Cc3c(C(C)C)cc4ccccc4c3O2)cc1 (stereo not drawn) [Compound 15]	4.8 min	486 nm	0.9	1.2	96%	
CC(C)(C)c1cc2ccccc2c2c1C=CC(c1ccccc1)(c1ccccc1)O2 [Compound 1]	3.6 min	462 nm	0.7	0.2	99%	
COc1ccc(C2(c3ccc(OC)c(F)c3)C=Cc3c(C)cc4ccccc4c3O2)cc1F [Compound 27]	7.3 min	496 nm	1.1	2.3	99%	
Cc1cc2ccccc2c2c1C=CC(c1ccccc1)(c1ccccc1)O2 [(C)]						a fading rate nearly the same as that of the above-mentioned compound (A)
CCC(C)(CC)c1cc2ccccc2c2c1C=CC(c1ccc(OC)c(F)c1)(c1ccc(OC)c(F)c1)O2 [Compound 5]	2.2 min	465 nm	0.6	1.5	99%	
COc1ccc(C2(c3ccco3)C=Cc3c(C)cc4ccccc4c3O2)cc1F (stereo not drawn) [Compound 31]	7.0 min	506 nm	1.1	3.0	95%	
